In PubChem BioAssay AID248 (DTP/NCI, 2004) one finds T/C data, which are given here for 11 compounds.

In the assay the test system is L1210 leukemia ip in BDF1 mice, survival T/C. Put plainly: NCI In Vivo Anticancer Drug Screen. Data for tumor model L1210 Leukemia (intraperitoneal) in B6D2F1 (BDF1) mice. The settings on record: endpoint: mean survival time, higher = longer survival. The gist of the method: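 Antitumor effect is assessed in tumor-bearing animals. Survival in the compound arm is compared with a vehicle-dosed control arm and expressed as their quotient.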

[1] abbreviates: dose: 50.0 mg/kg/injection, schedule: Q01DX009 (ip), vehicle: saline with Tween-80.
The mark [2] stands for this setting: dose: 100.0 mg/kg/injection, schedule: Q01DX009 (ip), vehicle: saline with Tween-80.
[3] abbreviates: dose: 100.0 mg/kg/injection, schedule: Q01DX009 (ip), vehicle: saline.
Setting [4] is: dose: 200.0 mg/kg/injection, schedule: Q01DX009 (ip), vehicle: saline.
Setting [5] is: dose: 200.0 mg/kg/injection, schedule: Q04DX003 (ip), vehicle: saline with Tween-80.

Values joined by “and” are separate entries in the source; they are usually repeats but may differ in a detail not shown here. Identical values can stand only once. Inconclusive results and toxic doses are left out.

For `O=CC(NC(=O)N(CCCl)N=O)C(O)C(O)C(O)CO` (configuration not stated), the T/C by setting is: (dose: 2.0 mg/kg/injection, schedule: Q01DX009 (ip), vehicle: carboxymethylcellulose (CMC)) 169 % of control; (dose: 2.0 mg/kg/injection, schedule: Q01DX009 (ip), vehicle: other) 163 % of control; (dose: 2.0 mg/kg/injection, schedule: Q01DX009 (ip), vehicle: saline) 172 % of control; (dose: 3.0 mg/kg/injection, schedule: Q01DX009 (ip), vehicle: carboxymethylcellulose (CMC)) 186 % of control; (dose: 3.0 mg/kg/injection, schedule: Q01DX009 (ip), vehicle: other) 180 % of control; (dose: 3.0 mg/kg/injection, schedule: Q01DX009 (ip), vehicle: saline) 259 % of control. Also, the T/C (dose: 4.4 mg/kg/injection, schedule: Q01DX009 (ip), vehicle: carboxymethylcellulose (CMC)) is 204 % of control; the T/C (dose: 4.4 mg/kg/injection, schedule: Q01DX009 (ip), vehicle: other) was 290 % of control; the T/C (dose: 4.4 mg/kg/injection, schedule: Q01DX009 (ip), vehicle: saline) was 308 % of control; the T/C (dose: 4.5 mg/kg/injection, schedule: Q01DX009 (ip), vehicle: saline) was 154 % of control; the T/C (dose: 6.0 mg/kg/injection, schedule: Q01DX001 (ip), vehicle: carboxymethylcellulose (CMC)) is 152 % of control; the T/C (dose: 6.0 mg/kg/injection, schedule: Q01DX001 (ip), vehicle: other) was 154 % of control. Also, the T/C runs as follows: (dose: 6.7 mg/kg/injection, schedule: Q01DX009 (ip), vehicle: carboxymethylcellulose (CMC)) 318 % of control; (dose: 6.7 mg/kg/injection, schedule: Q01DX009 (ip), vehicle: other) 151 % of control; (dose: 6.7 mg/kg/injection, schedule: Q01DX009 (ip), vehicle: saline) 471 % of control; (dose: 6.8 mg/kg/injection, schedule: Q01DX009 (ip), vehicle: saline) 207 % of control; (dose: 9.0 mg/kg/injection, schedule: Q01DX001 (ip), vehicle: carboxymethylcellulose (CMC)) 208 % of control and 213 % of control; (dose: 9.0 mg/kg/injection, schedule: Q01DX001 (ip), vehicle: other) 155 % of control. Further, the T/C by setting is: (dose: 9.0 mg/kg/injection, schedule: Q01DX001 (ip), vehicle: saline) 336 % of control; (dose: 10.0 mg/kg/injection, schedule: Q01DX009 (ip), vehicle: carboxymethylcellulose (CMC)) 281 % of control; (dose: 10.0 mg/kg/injection, schedule: Q01DX009 (ip), vehicle: other) 107 % of control; (dose: 10.0 mg/kg/injection, schedule: Q01DX009 (ip), vehicle: saline) 152 % of control and 243 % of control; (dose: 13.0 mg/kg/injection, schedule: Q01DX001 (ip), vehicle: carboxymethylcellulose (CMC)) 273 % of control and 302 % of control; (dose: 13.0 mg/kg/injection, schedule: Q01DX001 (ip), vehicle: other) 272 % of control. The T/C (dose: 13.0 mg/kg/injection, schedule: Q01DX001 (ip), vehicle: saline) was 211 % of control and 424 % of control; the T/C (dose: 18.0 mg/kg/injection, schedule: Q01DX001 (ip), vehicle: saline) is 505 % of control; the T/C (dose: 20.0 mg/kg/injection, schedule: Q01DX001 (ip), vehicle: carboxymethylcellulose (CMC)) is 455 % of control and 531 % of control; the T/C (dose: 20.0 mg/kg/injection, schedule: Q01DX001 (ip), vehicle: other) was 575 % of control; the T/C (dose: 20.0 mg/kg/injection, schedule: Q01DX001 (ip), vehicle: saline) was 296 % of control and 486 % of control; the T/C (dose: 26.0 mg/kg/injection, schedule: Q01DX001 (ip), vehicle: saline) is 505 % of control. For the same compound, the T/C reads like this: (dose: 30.0 mg/kg/injection, schedule: Q01DX001 (ip), vehicle: carboxymethylcellulose (CMC)) 282 % of control and 537 % of control; (dose: 30.0 mg/kg/injection, schedule: Q01DX001 (ip), vehicle: other) 506 % of control; (dose: 30.0 mg/kg/injection, schedule: Q01DX001 (ip), vehicle: saline) 284 % of control and 617 % of control; (dose: 44.0 mg/kg/injection, schedule: Q01DX001 (ip), vehicle: carboxymethylcellulose (CMC)) 162 % of control; (dose: 45.0 mg/kg/injection, schedule: Q01DX001 (ip), vehicle: carboxymethylcellulose (CMC)) 266 % of control; (dose: 45.0 mg/kg/injection, schedule: Q01DX001 (ip), vehicle: other) 153 % of control.
As for `COc1ccc2c(c1)CCC1(C)C2=CC(=O)/C1=C\[O-].COc1ccc2c(c1)CCC1(C)C2=CC(=O)/C1=C\[O-].[Cu+2]` (configuration not stated), the T/C was 108 % of control (dose: 25.0 mg/kg/injection, schedule: Q01DX009 (ip), vehicle: saline with Tween-80); 113 % of control under setting [1]; 97 % of control under setting [2]; 91 % of control (dose: 100.0 mg/kg/injection, schedule: Q04DX003 (ip), vehicle: saline sonified).
As for `O=C(O)CC(NC(=O)OCc1ccccc1)C(=O)O` (configuration not stated), the T/C reads like this: (dose: 50.0 mg/kg/injection, schedule: Q01DX009 (ip), vehicle: Klucel (hydroxypropylcellulose) (HPC)) 95 % of control; (dose: 100.0 mg/kg/injection, schedule: Q01DX009 (ip), vehicle: Klucel (hydroxypropylcellulose) (HPC)) 92 % of control; under setting [3], 114 % of control; (dose: 200.0 mg/kg/injection, schedule: Q01DX009 (ip), vehicle: Klucel (hydroxypropylcellulose) (HPC)) 98 % of control; under setting [4], 113 % of control; (dose: 400.0 mg/kg/injection, schedule: Q01DX009 (ip), vehicle: saline) 107 % of control.
Take `CC1(C)C(N2CCOCC2)CS1(=O)=O` (configuration not stated): the T/C was 101 % of control under setting [1]; 103 % of control under setting [2]; 94 % of control (dose: 100.0 mg/kg/injection, schedule: Q04DX003 (ip), vehicle: saline with Tween-80); 104 % of control (dose: 200.0 mg/kg/injection, schedule: Q01DX009 (ip), vehicle: saline with Tween-80); 88 % of control under setting [5].
Consider `CCOC(=O)C1(C(C)C)OC2(O)CCCCCN2C1=O` (configuration not stated), for which the T/C was 95 % of control (dose: 50.0 mg/kg/injection, schedule: Q01DX009 (ip), vehicle: saline); 100 % of control under setting [3]; 89 % of control (dose: 100.0 mg/kg/injection, schedule: Q04DX002 (ip), vehicle: saline); 95 % of control under setting [4]; 92 % of control (dose: 200.0 mg/kg/injection, schedule: Q04DX002 (ip), vehicle: saline).
On to `O=[N+]([O-])c1cccc([I+]c2ccccc2)c1`, for which the T/C was 91 % of control (dose: 50.0 mg/kg/injection, schedule: Q01DX001 (ip), vehicle: saline); 95 % of control (dose: 100.0 mg/kg/injection, schedule: Q01DX001 (ip), vehicle: saline); 101 % of control (dose: 200.0 mg/kg/injection, schedule: Q01DX001 (ip), vehicle: saline).
On to `C=C(C)C#CCN(CCO)C(C)C`, for which the T/C by setting is: (dose: 75.0 mg/kg/injection, schedule: Q01DX001 (ip), vehicle: other) 96 % of control; (dose: 150.0 mg/kg/injection, schedule: Q01DX001 (ip), vehicle: other) 96 % of control.
With `CCCC(C)(O)C(C)(C)C` (configuration not stated), the T/C is, setting by setting: (dose: 100.0 mg/kg/injection, schedule: Q01DX001 (ip), vehicle: carboxymethylcellulose (CMC)) 106 % of control; (dose: 200.0 mg/kg/injection, schedule: Q01DX001 (ip), vehicle: carboxymethylcellulose (CMC)) 106 % of control; (dose: 400.0 mg/kg/injection, schedule: Q01DX001 (ip), vehicle: carboxymethylcellulose (CMC)) 90 % of control.
Take `CCOC1(OCC)CCC2(CC1)c1ccccc1-c1ccccc12`: the T/C reads like this: (dose: 100.0 mg/kg/injection, schedule: Q04DX003 (ip), vehicle: Klucel (hydroxypropylcellulose) (HPC)) 92 % of control; (dose: 200.0 mg/kg/injection, schedule: Q04DX003 (ip), vehicle: Klucel (hydroxypropylcellulose) (HPC)) 93 % of control; (dose: 400.0 mg/kg/injection, schedule: Q04DX003 (ip), vehicle: Klucel (hydroxypropylcellulose) (HPC)) 95 % of control.
In the case of `CCCCCCCCCCCCCCCCNS(=O)(=O)c1ccc2sc(SC)nc2c1`, the T/C was 90 % of control under setting [5] and 90 % of control (dose: 400.0 mg/kg/injection, schedule: Q04DX003 (ip), vehicle: saline with Tween-80).
As for `CCOC(=O)Nc1cc2[nH]cnc2c(NC(=O)OCC)n1`, the T/C (dose: 75.0 mg/kg/injection, schedule: Q01DX001 (ip), vehicle: saline) was 95 % of control; the T/C (dose: 150.0 mg/kg/injection, schedule: Q01DX001 (ip), vehicle: saline) was 101 % of control; the T/C (dose: 300.0 mg/kg/injection, schedule: Q01DX001 (ip), vehicle: saline) is 92 % of control.
